This is an account of results in patent publication US10722514B2 (FLX Bio, Inc., priority 2017, dated 2020).

T1 sequence (Q93009 whole entry): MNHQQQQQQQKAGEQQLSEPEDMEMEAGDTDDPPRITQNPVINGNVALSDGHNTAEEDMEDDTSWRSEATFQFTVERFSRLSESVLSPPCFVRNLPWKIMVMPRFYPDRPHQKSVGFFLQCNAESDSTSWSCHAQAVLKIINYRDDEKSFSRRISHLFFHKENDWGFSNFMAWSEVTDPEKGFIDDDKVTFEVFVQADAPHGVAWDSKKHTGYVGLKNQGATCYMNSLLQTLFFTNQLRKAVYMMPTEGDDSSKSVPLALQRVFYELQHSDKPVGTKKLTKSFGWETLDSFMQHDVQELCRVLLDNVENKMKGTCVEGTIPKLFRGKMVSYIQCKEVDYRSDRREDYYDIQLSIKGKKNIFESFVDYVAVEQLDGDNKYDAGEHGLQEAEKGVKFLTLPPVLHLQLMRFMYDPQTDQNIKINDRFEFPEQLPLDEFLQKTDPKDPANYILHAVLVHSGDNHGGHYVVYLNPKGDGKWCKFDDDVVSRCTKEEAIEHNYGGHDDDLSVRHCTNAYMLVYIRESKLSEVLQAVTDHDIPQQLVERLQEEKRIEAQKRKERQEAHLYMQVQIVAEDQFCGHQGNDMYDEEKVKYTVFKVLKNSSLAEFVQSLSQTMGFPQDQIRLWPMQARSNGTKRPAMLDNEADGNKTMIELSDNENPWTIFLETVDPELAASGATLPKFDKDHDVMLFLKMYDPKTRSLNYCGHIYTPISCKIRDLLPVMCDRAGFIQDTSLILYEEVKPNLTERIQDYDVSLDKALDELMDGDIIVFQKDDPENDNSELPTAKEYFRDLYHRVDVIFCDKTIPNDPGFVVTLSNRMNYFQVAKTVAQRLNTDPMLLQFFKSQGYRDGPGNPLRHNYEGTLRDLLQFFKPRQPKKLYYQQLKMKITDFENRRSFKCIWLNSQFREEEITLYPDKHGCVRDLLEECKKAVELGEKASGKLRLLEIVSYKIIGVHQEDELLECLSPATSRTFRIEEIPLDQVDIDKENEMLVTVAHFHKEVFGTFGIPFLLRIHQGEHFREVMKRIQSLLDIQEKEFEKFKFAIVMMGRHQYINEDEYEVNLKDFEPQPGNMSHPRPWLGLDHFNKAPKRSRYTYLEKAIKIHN

The first experiment addresses T1, recombinant full-length USP7 (Homo sapiens, UniProt Q93009).
T1 construct: A 25 μl reaction volume containing recombinant full-length USP7 (62 pM)
Put plainly: USP7-mediated ubiquitin-rhodamine cleavage assay. The format is biochemical. The settings on record: recombinant full-length USP7 62 pM; ubiquitin-rhodamine 100 nM; 30-minute incubation with compound, 1 hour reaction at room temperature; read-out: Potency: USP7 IC50. Put shortly: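 Rhodamine fluorescence read-out after acetic acid stop; IC50 by 4-parameter nonlinear regression. Enzyme at 62 pM, substrate ubiquitin-rhodamine 100 nM final, 1 h at room temperature in the dark, after 30 min compound preincubation. Buffer: HEPES pH 7.3, NaCl, TCEP, BSA; 1% DMSO.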
For the compound `Cc1cc(C#N)cc(-c2ccnc3cc(CN4C(=O)C5C6CCC(C6)C5C4=O)sc23)c1O[C@@H]1CNC[C@@H]1F` (stereo partly drawn) [Example 112, 3-(2-((1,3-Dioxooctahydro-2H-4,7-methanoisoindol-2-yl)methyl)thieno[3,2-b]pyridin-7-yl)-4-(((3R,4S)-4-fluoropyrrolidin-3-yl)oxy)-5-methylbenzonitrile], the IC50 is under 1000 nM.
`N#Cc1cc(Cl)cc(-c2ccnc3cc(CN4C(=O)CCC4=O)sc23)c1O[C@@H]1CNC[C@@H]1F` [Example 121, 5-Chloro-3-(2-((2,5-dioxopyrrolidin-1-yl)methyl)thieno[3,2-b]pyridin-7-yl)-2-(((3R,4S)-4-fluoropyrrolidin-3-yl)oxy)benzonitrile]: the concentration for half-maximal inhibition (IC50) is under 1000 nM.
On to `Cc1cc(Cl)cc(-c2ccnc3cc(CO)sc23)c1OC1COC2(CNC2)C1` (stereo not drawn) [Example 40, (7-(2-((5-Oxa-2-azaspiro[3.4]octan-7-yl)oxy)-5-chloro-3-methylphenyl)thieno[3,2-b]pyridin-2-yl)methanol], for which the IC50 lay within 10000 to 30000 nM.
For `Cc1cc(Cl)cc(-c2ccnc3cc(Cn4c(=O)ccn(CC(F)(F)F)c4=O)sc23)c1OC1CNC1` [Example 61, 3-((7-(2-(Azetidin-3-yloxy)-5-chloro-3-methylphenyl)thieno[3,2-b]pyridin-2-yl)methyl)-1-(2,2,2-trifluoroethyl)pyrimidine-2,4(1H,3H)-dione], the IC50 was under 1000 nM.
On the same count and under the same terms, in the case of `Cc1cc(Cl)cc(-c2ncnc3cc(CN4C(=O)CSC4=O)sc23)c1OC1CCNCC1` [Example 226, 3-((4-(5-Chloro-3-methyl-2-(piperidin-4-yloxy)phenyl)thieno[3,2-d]pyrimidin-6-yl)methyl)thiazolidine-2,4-dione] it was 1000 to 10000 nM; in that of `Cc1cc(Cl)cc(-c2ccnc3ccsc23)c1OCC1(C)CNC1` [Example 45, 7-(5-Chloro-3-methyl-2-((3-methylazetidin-3-yl)methoxy)phenyl)thieno[3,2-b]pyridine], under 1000 nM; in that of `Cc1cc(Cl)cc(-c2ncnc3ccsc23)c1OCC1(C)CNC1` [Example 26, 4-(5-Chloro-3-methyl-2-((3-methylazetidin-3-yl)methoxy)phenyl)thieno[3,2-d]pyrimidine], 10000 to 30000 nM.
`Cc1cc(Cl)cc(-c2ccnc3cc(Cn4c(=O)ccn(CC(F)(F)F)c4=O)sc23)c1O[C@@H]1CC[C@@H](N)C1` [Example 59, 3-((7-(2-(((1R,3R)-3-Aminocyclopentyl)oxy)-5-chloro-3-methylphenyl)thieno[3,2-b]pyridin-2-yl)methyl)-1-(2,2,2-trifluoroethyl)pyrimidine-2,4(1H,3H)-dione]: the IC50 was under 1000 nM.
Take `Cc1cc(Cl)cc(-c2ccnc3cc(CN4C(=O)CCC4=O)sc23)c1O[C@H]1CCNC[C@@H]1F` [Example 208, 1-((7-(5-Chloro-2-(((3S,4S)-3-fluoropiperidin-4-yl)oxy)-3-methylphenyl)thieno[3,2-b]pyridin-2-yl)methyl)pyrrolidine-2,5-dione]: the IC50 is under 1000 nM.
The same measure, in the same setting: in the case of `Cc1cc(Cl)cc(-c2ccnc3cc(Cn4c(=O)cc[nH]c4=O)sc23)c1O[C@@H]1CNC[C@@H]1F` [Example 153, 3-((7-(5-Chloro-2-(((3R,4S)-4-fluoropyrrolidin-3-yl)oxy)-3-methylphenyl)thieno[3,2-b]pyridin-2-yl)methyl)pyrimidine-2,4(1H,3H)-dione] it was under 1000 nM; in that of `Cc1cc(Cl)cc(-c2ncnc3cc(CN4C(=O)CN(C)C4=O)sc23)c1O[C@@H]1CNC[C@@H]1F` [Example 146, 3-((4-(5-Chloro-2-(((3R,4S)-4-fluoropyrrolidin-3-yl)oxy)-3-methylphenyl)thieno[3,2-d]pyrimidin-6-yl)methyl)-1-methylimidazolidine-2,4-dione], under 1000 nM; in that of `Cc1cc(Cl)cc(-c2ccnc3cc([C@H](C)N4C(=O)CCC4=O)sc23)c1O[C@@H]1CNC[C@@H]1F` [Example 117, 1-((S)-1-(7-(5-Chloro-2-(((3R,4S)-4-fluoropyrrolidin-3-yl)oxy)-3-methylphenyl)thieno[3,2-b]pyridin-2-yl)ethyl)pyrrolidine-2,5-dione], under 1000 nM.
Still for that read-out and setting: as for `Cc1cc(Cl)cc(-c2ccnc3cc(CO)sc23)c1O[C@@H]1CN[C@H](C(C)(C)O)C1` [Example 72, 2-((2S,4S)-4-(4-Chloro-2-(2-(hydroxymethyl)thieno[3,2-b]pyridin-7-yl)-6-methylphenoxy)pyrrolidin-2-yl)propan-2-ol], the figure is 1000 to 10000 nM; as for `CO[C@H]1CNC[C@H]1Oc1c(C)cc(Cl)cc1-c1ccnc2cc(CN3C(=O)CCC3=O)sc12` [Example 106, 1-((7-(5-Chloro-2-(((3R,4S)-4-methoxypyrrolidin-3-yl)oxy)-3-methylphenyl)thieno[3,2-b]pyridin-2-yl)methyl)pyrrolidine-2,5-dione], under 1000 nM.

Still in this experiment, the particulars now being: recombinant full-length USP7 62 pM; ubiquitin-rhodamine 100 nM; 30-minute pre-incubation, 1 hour reaction at room temperature; read-out: Potency (USP7 IC50).
Turning to `Cc1cc(Cl)cc(-c2ccnc3cc(Cn4c(=O)ccn(CC(F)(F)F)c4=O)sc23)c1OC1(C)CCNCC1` [Example 618, 3-[[7-[5-chloro-3-methyl-2-[(4-methyl-4-piperidyl)oxy]phenyl]thieno[3,2-b]pyridin-2-yl]methyl]-1-(2,2,2-trifluoroethyl)pyrimidine-2,4-dione], the IC50 was under 1000 nM.
Same read-out and setting: in the case of `Cc1cc(Cl)cc(-c2ccnc3cc(Cn4c(=O)ccn(C)c4=O)sc23)c1OC1CCCN(CCO)C1` (stereo not drawn) [Example 506, 3-[[7-[5-chloro-2-[[1-(2-hydroxyethyl)-3-piperidyl]oxy]-3-methyl-phenyl]thieno[3,2-b]pyridin-2-yl]methyl]-1-methyl-pyrimidine-2,4-dione] it was under 1000 nM; in that of `Cc1cc(Cl)cc(-c2ncnc3cc(Cn4c(=O)c(F)cn(C(C)C)c4=O)sc23)c1O[C@H]1CCCNC1` [Example 548, 3-[[4-[5-chloro-3-methyl-2-[[(3S)-3-piperidyl]oxy]phenyl]thieno[3,2-d]pyrimidin-6-yl]metthyl]-5-fluoro-1-isopropyl-pyrimidine-2,4-dione], under 1000 nM; in that of `Cc1cc(Cl)cc(-c2ccnc3cc(Cn4c(=O)ccn(C)c4=O)sc23)c1O[C@@H]1CNCC(C)(C)C1` [Example 536, 3-[[7-[5-chloro-2-[[(3S)-5-dimethyl-3-piperidyl]oxy]-3-methyl-phenyl]thieno[3,2-b]pyridin-2-yl]methyl]-1-methyl-pyrimidine-2,4-dione; 2,2,2-trifluoroacetic acid], under 1000 nM.
In the case of `Cc1cc(Cl)cc(-c2ccnc3cc(CN4C(=O)CCC4=O)sc23)c1OC1CC2(CCN2)C1` (stereo not drawn) [Example 464, 1-[[7-[2-(1-azaspiro[3.3]heptan-6-yloxy)-5-chloro-3-methyl-phenyl]thieno[3,2-b]pyridin-2-yl]methyl]pyrrolidine-2,5-dione; 2,2,2-trifluoroacetic acid], the half-maximal inhibitory concentration (IC50) is under 1000 nM.
In the case of `Cn1ccc(=O)n(Cc2cc3nccc(-c4cc(Cl)cc(C(F)F)c4O[C@H]4CCCNC4)c3s2)c1=O` [Example 498, 3-[[7-[5-chloro-3-(difluoromethyl)-2-[[(3S)-3-piperidyl]oxy]phenyl]thieno[3,2-b]pyridin-2-yl]methyl]-1-methyl-pyrimidine-2,4-dione], the IC50 is under 1000 nM.
With `Cc1cc(Cl)cc(-c2ccnc3cc(Cn4c(=O)ccn(C)c4=O)sc23)c1O[C@H]1CCNC[C@@H]1F` [Example 569], the IC50 was under 1000 nM.
Consider `Cc1cc(Cl)cc(-c2ccnc3cc(Cn4c(=O)c(C(F)(F)F)cn(C)c4=O)sc23)c1O[C@H]1CCCNC1` [Example 581, 3-[[7-[5-chloro-3-methyl-2-[[(3S)-3-piperidyl]oxy]phenyl]thieno[3,2-b]pyridin-2-yl]methyl]-1-methyl-5-(trifluoromethyl)pyrimidine-2,4-dione; 2,2,2-trifluoroacetic acid], for which the half-inhibitory concentration (IC50) is under 1000 nM.
The same measure, in the same setting: as for `Cc1cc(Cl)cc(-c2ccnc3cc(Cn4c(=O)cc(C(F)(F)F)n(C)c4=O)sc23)c1O[C@H]1CCCNC1` [Example 515, 3-[[7-[5-chloro-3-methyl-2-[[(3S)-3-piperidyl]oxy]phenyl]thieno[3,2-b]pyridin-2-yl]methyl]-1-methyl-6-(trifluoromethyl)pyrimidine-2,4-dione; 2,2,2-trifluoroacetic acid], the figure is under 1000 nM; as for `Cc1cc(Cl)cc(-c2ccnc3cc(Cn4c(=O)ccn(C)c4=O)sc23)c1OCC1CNC1` [Example 487, 3-[[7-[2-(azetidin-3-ylmethoxy)-5-chloro-3-methyl-phenyl]thieno[3,2-b]pyridin-2-yl]methyl]-1-methyl-pyrimidine-2,4-dione], under 1000 nM; as for `Cc1cc(Cl)cc(-c2ccnc3cc(Cn4c(=O)ccn(C)c4=O)sc23)c1OC1CCNC(C)(C)C1` (stereo not drawn) [Example 572, 3-[[7-[5-chloro-2-[(2,2-dimethyl-4-piperidyl)oxy]-3-methyl-phenyl]thieno[3,2-b]pyridin-2-yl]methyl]-1-methyl-pyrimidine-2,4-dione; 2,2,2-trifluoroacetic acid], under 1000 nM.
The same measure, in the same setting: in the case of `Cc1cc(Cl)cc(-c2ccnc3cc(Cn4c(=O)ccn(CC(F)(F)F)c4=O)sc23)c1O[C@@H]1CNC[C@@H]1F` [Example 485, 3-[[7-[5-chloro-2-[(3R,4S)-4-fluoropyrrolidin-3-yl]oxy-3-methyl-phenyl]thieno[3,2-b]pyridin-2-yl]methyl]-1-(2,2,2-trifluoroethyl)pyrimidine-2,4-dione] it was under 1000 nM.
Regarding `Cc1cc(Cl)cc(-c2ncnc3cc(Cn4c(=O)ccn(CC(F)(F)F)c4=O)sc23)c1O[C@H]1CCNC[C@H]1C` [Example 585, 3-[[4-[5-chloro-3-methyl-2-[[(3R,4S)-3-methyl-4-piperidyl]oxy]phenyl]thieno[3,2-d]pyrimidin-6-yl]methyl]-1-(2,2,2-trifluoroethyl)pyrimidine-2,4-dione], the IC50 is under 1000 nM.
